Test results reported in US6486126B1, “Antioxidant activity in SDG metabolites” (University of Saskatchewan Technologies Incorporated, priority 1999, dated 2002).
Read-outs that look alike come from different tables or passages of the source.

Columns and labels:
[1] = test system: zymosan-stimulated polymorphonuclear leukocytes; assay: Luminol-dependent chemiluminescence of zymosan-stimulated PMNLs in blood (PMNL-CL); assay type: cell-based, human; conditions: for inhibition at 1000 µg/mL / inhibition at 2500 µg/mL / inhibition at 5000 µg/mL: Homo sapiens, Leukocyte; for antioxidant potency as compared to vitamin E: ratio of inhibition of PMNL-CL at 2.5 mg/ml, relative to vitamin E
Method: (§1) Antioxidant activity of SDG, SECO, ED, EL and vitamin E (alpha-tochopherol phosphate) was measured using the ability of these compounds to reduce the chemiluminescence of activated PMNLs [polymorphonuclear leukocytes chemiluminescence (PMNL-CL)]. Activated polymorphonuclear leukocytes produce superoxide anion (O2^−), hydrogen peroxide (H2O2), hydroxyl radical (.OH) and singlet oxygen (^1O2). Chemiluminescence is amplified by luminol, which is converted to an excited aminophthalate ion in the presence of oxidizing species like O2^−, H2O2, .OH and ^1O2. Luminol-dependent CL reflects the amount of activated oxygen species generated from activated phagocytes, thus, this method can be used to monitor the reactive oxygen species produced by PMNLs. Agents which scavenge O2^−, H2O2, .OH and ^1O2 would reduce PMNL-CL. The SDG, SECO, ED and EL were all obtained from Agriculture and Agri-Food Canada, Saskatoon, Saskatchewan.
(§2) Venous blood from healthy subjects, after their informed consent, was collected in ethylenediamine tetraacetic acid (EDTA)-containing tubes for PMNL counts, and PMNL-CL. PMNL and WBC counts were made using Technicon H6000 system (Technicon Instruments, Tarrytown, N.Y.). PMNL-CL a measure of reactive oxygen species produced by PMNLs was measured by a method described in Prasad et al., Effect of polymorphonuclear leukocyte-derived oxygen free radicals and hypochlorous acid or cardiac function and some biochemical parameters, Am. Heart J. 119:538-550, 1990. Blood (0.05 ml) was added to a glass tube containing Hank's balanced salt solution (HBSS) buffer (pH 7.40) and luminol at a final concentration of 10^−4 M. To assess the ability of various test materials in the varying amounts (1.0, 2.5, 5.0 and 10 mg/ml) in the powder form, were each added to the test tube containing blood, shaken well and incubated for 15 minutes at room temperature. The final volume of the mixture in these tubes was 0.5 ml. All the test tubes were placed in a luminometer for 5 min at 37° C., and phagocytosis was initiated by the addition of 0.1 ml (10 mg/ml) of opsonized zymosan prepared by previously described method (Prasad et al., 1990). The chemiluminescence was monitored with an Auto Lumat, LB953 luminometer (Egg Berthold, Berthold Analytical Instrument Inc., 472 Amherst Street, Nashua, N.H., 03063) for 3 seconds every 2 or 3 minutes (depending on the sample number) for a period of 60 minutes. The integrated area under the curve gives the total luminal-dependent chemiluminescent response during the period of monitoring, which represents the oxygen derived CL. The difference in the integrated area under zymosan-activated in the absence and in the presence of various compounds under investigation is designated as particular compound inhibitable oxygen derived radical CL. The unit for chemiluminescence is in counts per minute (cpm). The integrated area under the curve is in cpm.m. The unit for chemiluminescence is cpm.m.10^−6 PMNLs because the chemiluminescence is expressed in terms of 10^−6 PMNL counts. The peak chemiluminescence is cpm 10^−6 PMNLs.
The results are expressed as mean±SE and n=sample size. One-way Analysis of Variance (ANOVA) followed by Scheffe test was used to derive differences between different groups. A “p” value of less than 0.05 was considered significant.

unstimulated blood (BL) = assay: Integrated luminol-dependent chemiluminescence of unstimulated blood; assay type: cell-based, human; conditions: 2.5 mg/ml, mean ± SE from 16 samples
Method: as §1
as §2, with “The difference in the integrated area under zymosan-activated in the absence and in the presence of various compounds under investigation is designated as particular compound inhibitable oxygen derived radical CL. The unit for chemiluminescence is in counts per minute (cpm). The integrated area under the curve is in cpm.m. The unit for chemiluminescence is cpm.m.10^−6 PMNLs because the chemiluminescence is expressed in terms of 10^−6 PMNL counts. The peak chemiluminescence is cpm 10^−6 PMNLs.” left out
The results are expressed as mean±SE and n=sample size. […]

[2] = 1.0 mg/ml, concentration-response (FIGS. 4-8)
[3] = 2.5 mg/ml, concentration-response (FIGS. 4-8), read-out: inhibition of zymosan-stimulated PMNL-CL
[4] = 5.0 mg/ml, concentration-response (FIGS. 4-8)
[5] = zymosan-stimulated, 2.5 mg/ml, comparison experiment (FIG. 3), read-out: percentage inhibition of PMNL-CL
[6] = 2.5 mg/ml, concentration-response (FIGS. 4-8)
[7] = 10.0 mg/ml, concentration-response (FIGS. 4-8)
[8] = zymosan-stimulated, 2.5 mg/ml, comparison experiment (FIG. 3)

Compound	inhibition at 1000 µg/mL [1, 2] [%]	inhibition at 2500 µg/mL [1, 3] [%]	inhibition at 5000 µg/mL [1, 4] [%]	inhibition at 2500 µg/mL [1, 5] [%]	antioxidant potency as compared to vitamin E [1] [times]	antioxidant potency relative to SDG (times more potent than SDG) [1] [times]	Integrated CL of unstimulated blood (BL) in the presence of compound (unstimulated blood (BL))	effect on zymosan-stimulated PMNL-CL (in words) ([1]; 1.0 mg/ml)	inhibition of zymosan-stimulated PMNL-CL [1, 6] [%]	inhibition of zymosan-stimulated PMNL-CL [1, 4] [%]	inhibition of zymosan-stimulated PMNL-CL [1, 7] [%]	percentage inhibition of PMNL-CL [1, 8] [%]	inhibition of zymosan-stimulated PMNL-CL [1, 2] [%]
O=C1OC[C@H](Cc2cccc(O)c2)[C@H]1Cc1cccc(O)c1 [EL, enterolactone]	81	86	83	81.6	4.35	3.43	2.177 ± 0.138 ×10^6 cpm · m · 10^−6 PMNLs						
OC[C@H](Cc1cccc(O)c1)[C@H](CO)Cc1cccc(O)c1 [ED, enterodiol]	82	96	95	94.2	5.02	3.95	1.073 ± 0.048 ×10^6 cpm · m · 10^−6 PMNLs						
Cc1c(C)c2c(c(C)c1OP(=O)(O)O)CC[C@@](C)(CCC[C@H](C)CCC[C@H](C)CCCC(C)C)O2 [vitamin E, alpha-tochopherol phosphate, reference compound]								increase in the PMNL-CL	17	88	97	18.75	
COc1cc(C[C@@H](CO)[C@H](CO)Cc2ccc(O)c(OC)c2)ccc1O [SECO, secoisolariciresinol]					4.86	3.82	0.878 ± 0.023 ×10^6 cpm · m · 10^−6 PMNLs		93	99.5	100	91.2	78
COc1cc(C[C@@H](CO[C@@H]2O[C@H](CO)[C@@H](O)[C@H](O)[C@H]2O)[C@H](CO[C@@H]2O[C@H](CO)[C@@H](O)[C@H](O)[C@H]2O)Cc2ccc(O)c(OC)c2)ccc1O [SDG, secoisolariciresinol diglucoside, reference compound]					1.27		2.463 ± 0.159 ×10^6 cpm · m · 10^−6 PMNLs		30	48		23.87	24
